Data reported in patent publication US8067424B2, “Selective inhibitors for cyclin-dependent kinases” (Emory University, priority 2007, dated 2011).
Like-named read-outs stand apart in the source and are kept apart here.

Key:
Type in all cases: biochemical
PKC zeta = biological target: T1, PKC zeta (Homo sapiens, UniProt Q05513); assay: Kinase screen: PKC zeta assay
T1 sequence (Q05513 1-592): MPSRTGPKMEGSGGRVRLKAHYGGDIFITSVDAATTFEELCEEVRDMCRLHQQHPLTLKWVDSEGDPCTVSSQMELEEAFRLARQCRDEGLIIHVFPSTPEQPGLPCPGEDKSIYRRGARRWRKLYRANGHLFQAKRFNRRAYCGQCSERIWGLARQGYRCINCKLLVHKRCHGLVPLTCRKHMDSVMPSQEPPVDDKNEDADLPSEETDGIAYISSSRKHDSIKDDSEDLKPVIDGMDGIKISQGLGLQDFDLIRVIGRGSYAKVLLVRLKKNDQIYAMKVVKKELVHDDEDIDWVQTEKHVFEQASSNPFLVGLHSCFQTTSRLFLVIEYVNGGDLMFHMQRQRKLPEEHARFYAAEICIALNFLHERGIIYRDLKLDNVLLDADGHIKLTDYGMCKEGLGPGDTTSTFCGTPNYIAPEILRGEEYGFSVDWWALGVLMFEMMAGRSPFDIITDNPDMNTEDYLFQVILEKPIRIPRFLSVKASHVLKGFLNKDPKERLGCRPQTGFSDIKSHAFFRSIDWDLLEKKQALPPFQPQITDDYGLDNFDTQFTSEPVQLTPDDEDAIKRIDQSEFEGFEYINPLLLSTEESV
Procedure: (§1) Generally, the same procedure was used for all assays. Since the total assay volume was 25.5 microliters, 0.5 microliters of inhibitors at 51× assay concentration were added to the plates before any other addition.
(§2) The basic procedure was to add 0.5 microliters inhibitor/control in DMSO to plate. Fifteen microliters of enzyme/substrate/buffer mix were added and incubated for 5 min. Ten microliters MgATP at the relevant concentration were added and incubated for 30 min. The assay was stopped by adding 5 microliters of 3% orthophosphoric acid. The assay was transferred to a p81 filter plate and read in a scintillation counter of 30 sec/well. Note that this assay procedure was not followed for MKK1, which instead involved a two-step assay, and PKC alpha, which required the addition of lipid vesicles.
PKC zeta assay: PKC zeta (5-20 mU diluted in 50 mM Tris pH 7.5, 0.1 mM EGTA, 0.1% b-mercaptoethanol, 1 mg/ml BSA, 100 μM Vanadate) was assayed against a substrate peptide ([…]) (SEQ ID NO: 34) in a final volume of 25.5 μl containing 50 mM Tris pH 7.5, 0.05% b-mercaptoethanol, 10 μM Vanadate, 300 μM substrate peptide, 10 mM magnesium acetate and 0.005 mM [33P-g-ATP] (50-1000 cpm/pmole) and incubated for 30 min at room temperature. Assays were stopped by addition of 5 μl of 0.5 M (3%) orthophosphoric acid and then harvested onto P81 Unifilter plates with a wash buffer of 50 mM orthophosphoric acid.

CAMK1 = CAMK1 (Homo sapiens, UniProt Q14012); assay: Kinase screen: CAMK-1 assay
Procedure: as §1, §2
CAMK-1 assay: 5-20 mU of CAMK-1 (diluted in 50 mM Tris (pH 7.5), 0.1 mM EGTA, 1 mg/ml BSA, 0.1%, b-Mercaptoethanol) was assayed against substrate peptide ([…]) (SEQ ID NO: 22) in a final volume of 25.5 μl containing 50 mM Tris (pH 7.5), 0.1 mM EGTA, 0.5 mM CaCl2, 0.3 μM calmodulin, 0.1%, b-Mercaptoethanol, 300 μM substrate peptide, 10 mM magnesium acetate and 0.05 mM [33P-g-ATP] (500-1000 cpm/pmole) and incubated for 30 mins at room temperature. Assays were stopped by addition of 5 μl of 0.5M (3%) orthophosphoric acid. Assays were harvested onto P81 Unifilter plates using a wash buffer of 50 mM orthophosphoric acid.

GSK3β = GSK3β (Homo sapiens, UniProt P49841); assay: Kinase screen: GSK3b assay
Procedure: as §1, §2
(50-1000 cpm/pmole) and incubated for 30 min at room temperature. Assays were stopped by addition of 5 μl of 0.5 M (3%) orthophosphoric acid and then harvested onto P81 Unifilter plates with a wash buffer of 50 mM orthophosphoric acid.

MST2 = biological target: T2, MST2 (Homo sapiens, UniProt Q13188); assay: Kinase screen: MST2 assay
T2 sequence (Q13188 1-491): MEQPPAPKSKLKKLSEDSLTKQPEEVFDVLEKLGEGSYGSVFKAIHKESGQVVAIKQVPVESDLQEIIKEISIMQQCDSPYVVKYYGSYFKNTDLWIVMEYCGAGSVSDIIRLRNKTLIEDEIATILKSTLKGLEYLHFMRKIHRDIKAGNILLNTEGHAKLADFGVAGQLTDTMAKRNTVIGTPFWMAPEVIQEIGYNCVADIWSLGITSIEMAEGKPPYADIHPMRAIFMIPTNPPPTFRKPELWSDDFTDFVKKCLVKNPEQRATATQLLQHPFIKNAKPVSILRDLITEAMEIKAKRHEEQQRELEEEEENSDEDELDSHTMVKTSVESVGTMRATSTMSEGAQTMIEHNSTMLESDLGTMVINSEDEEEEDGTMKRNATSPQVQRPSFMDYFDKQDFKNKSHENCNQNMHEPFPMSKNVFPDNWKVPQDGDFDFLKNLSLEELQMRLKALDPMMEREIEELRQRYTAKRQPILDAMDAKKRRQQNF
Procedure: as §1, §2
MST2 assay: MST2 (5-20 mU diluted in 50 mM Tris pH 7.5, 0.1 mM EGTA, 0.1% b-mercaptoethanol, 100 μM Vanadate) was assayed against MBP in a final volume of 25.5 μl containing 50 mM Tris pH 7.5, 0.05% b-mercaptoethanol, 0.33 mg/ml MBP, 10 mM magnesium acetate and 0.02 mM [33P-g-ATP] (50-1000 cpm/pmole) and incubated for 30 min at room temperature. Assays were stopped by addition of 5 μl of 0.5 M (3%) orthophosphoric acid and then harvested onto P81 Unifilter plates with a wash buffer of 50 mM orthophosphoric acid.

[1] = 10 micromolar compound, read-out: mean activity remaining (as a percentage of the original activity), PKC zeta
[2] = 10 micromolar compound, read-out: mean activity remaining (as a percentage of the original activity), CAMK 1
[3] = 10 micromolar compound, read-out: mean activity remaining (as a percentage of the original activity), GSK 3b
[4] = 10 micromolar compound, read-out: mean activity remaining (as a percentage of the original activity), MST2

Chain of GSK3β (P49841 whole entry, species assumed): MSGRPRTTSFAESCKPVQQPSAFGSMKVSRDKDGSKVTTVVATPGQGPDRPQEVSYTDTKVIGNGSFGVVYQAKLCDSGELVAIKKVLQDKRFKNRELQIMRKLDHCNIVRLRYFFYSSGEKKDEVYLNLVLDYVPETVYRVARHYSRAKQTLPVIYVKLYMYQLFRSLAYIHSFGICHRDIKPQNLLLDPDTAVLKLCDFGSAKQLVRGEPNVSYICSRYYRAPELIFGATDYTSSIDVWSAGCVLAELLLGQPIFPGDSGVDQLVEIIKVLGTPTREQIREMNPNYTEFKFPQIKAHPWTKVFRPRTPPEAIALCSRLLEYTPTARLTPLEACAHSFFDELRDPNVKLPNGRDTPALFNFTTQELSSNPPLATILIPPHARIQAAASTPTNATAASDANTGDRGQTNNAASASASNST

SMILES: CC(C)c1cnn2c(NCc3ccccc3F)cc(NCCCCCN)nc12 [ICEC-0232]
- mean activity remaining (as a percentage of the original activity), PKC zeta (PKC zeta; 10 micromolar compound): 65%
- mean activity remaining (as a percentage of the original activity), CAMK 1 (CAMK1; 10 micromolar compound): 29%
- mean activity remaining (as a percentage of the original activity), GSK 3b (GSK3β; 10 micromolar compound): 70%
- mean activity remaining (as a percentage of the original activity), MST2 (MST2; 10 micromolar compound): 82%

SMILES: CC(C)c1cnn2c(NCc3ccccc3)cc(NCCCCCCCN)nc12 [BS-181]
- remaining activity at 10 µM (PKC zeta; PKC zeta, 10 μM, read-out: Mean Remaining Enzyme Activity (%)): 114%
- remaining activity at 10 µM (CAMK1; CAMK1, 10 μM, read-out: Mean Remaining Enzyme Activity (%)): 48%
- remaining activity at 10 µM (GSK3β; GSK3β, 10 μM, read-out: Mean Remaining Enzyme Activity (%)): 112%
- remaining activity at 10 µM (MST2; MST2, 10 μM, read-out: Mean Remaining Enzyme Activity (%)): 112%

SMILES: CC[C@H](CO)Nc1cc(NCc2ccccc2)n2ncc(C(C)C)c2n1 [ICEC0067]
- remaining activity at 10 µM (PKC zeta; [1]): 76%
- remaining activity at 10 µM (CAMK1; [2]): 84%
- remaining activity at 10 µM (GSK3β; [3]): 72%
- remaining activity at 10 µM (MST2; [4]): 89%

SMILES: C=C[C@H](CO)Nc1cc(NCc2ccccc2)n2ncc(C(C)C)c2n1 [ICEC0065]
- remaining activity at 10 µM (PKC zeta; [1]): 84%
- remaining activity at 10 µM (CAMK1; [2]): 89%
- remaining activity at 10 µM (GSK3β; [3]): 92%
- remaining activity at 10 µM (MST2; [4]): 87%

SMILES: CC(C)c1cnn2c(NCc3ccccc3)cc(N[C@@H](CO)[C@H](O)CO)nc12 [ICEC0318, (3S)-3-(7-(Benzylamino)-3-isopropylpyrazolo[1,5-a]pyrimidin-5-ylamino)butane-1,2,4-triol]
- remaining activity at 10 µM (PKC zeta; [1]): 64%
- remaining activity at 10 µM (CAMK1; [2]): 93%
- remaining activity at 10 µM (GSK3β; [3]): 63%
- remaining activity at 10 µM (MST2; [4]): 86%
